Laboratory results as given in the supplement of paper PMC10307832.

Tests used:
Test in all cases: relative viability (nuclei count vs DMSO), 5 days (fraction); higher = more cells survive
[1] = compound: CC(C)C[C@@H](C(=O)N[C@H](C(=O)OC1CCCC1)c1ccccc1)[C@H](O)C(=O)NO [Tosedostat] + Nc1ncn([C@H]2C[C@H](O)[C@@H](CO)O2)c(=O)n1 [Decitabine] (partner 2 µM)
Outline: (§1)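 Relative viability is defined as nuclei in treated wells over nuclei in vehicle wells. Duplicate plates were run and medians reported. Lung cancer cell lines in 1536-well plates were dosed by pin tool one day after seeding, with one drug or with a fixed anchor-drug dose plus five library-drug doses (not always all listed) in √10 steps, and nuclei were counted after 5 days.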

[2] = compound: CC(C)C[C@@H](C(=O)N[C@H](C(=O)OC1CCCC1)c1ccccc1)[C@H](O)C(=O)NO [Tosedostat] + N=C(N)NC(=N)NCCc1ccccc1 [Phenformin] (partner 250 µM)
Outline: as §1

[3] = compound: CC(C)C[C@@H](C(=O)N[C@H](C(=O)OC1CCCC1)c1ccccc1)[C@H](O)C(=O)NO [Tosedostat] + CC(=O)Nc1cccc(-n2c(=O)n(C3CC3)c(=O)c3c(Nc4ccc(I)cc4F)n(C)c(=O)c(C)c32)c1 [Trametinib] (partner 0.02 µM)
Outline: as §1

[4] = compound: CC1=NN=C(O1)C2=NN=C(C=C2)N3CCC(CC3)OC4=C(C=CC(=C4)F)Cl + CC1(C)CCC(c2ccc(Cl)cc2)=C(CN2CCN(c3ccc(C(=O)NS(=O)(=O)c4ccc(N[C@H](CCN5CCOCC5)CSc5ccccc5)c(S(=O)(=O)C(F)(F)F)c4)cc3)CC2)C1 [Navitoclax] (partner 0.5 µM)
Outline: as §1

Cell Line	relative viability ([1]; first compound 0.02 µM)	relative viability ([1]; first compound 0.06325 µM)	relative viability ([1]; first compound 0.2 µM)	relative viability ([1]; first compound 0.6325 µM)	relative viability ([1]; first compound 2 µM)	relative viability ([2]; first compound 0.02 µM)	relative viability ([2]; first compound 0.06325 µM)	relative viability ([2]; first compound 0.2 µM)	relative viability ([2]; first compound 0.6325 µM)	relative viability ([2]; first compound 2 µM)	relative viability ([3]; first compound 0.02 µM)	relative viability ([3]; first compound 0.06325 µM)	relative viability ([3]; first compound 0.2 µM)	relative viability ([3]; first compound 0.6325 µM)	relative viability ([3]; first compound 2 µM)	relative viability ([4]; first compound 0.253 µM)	relative viability ([4]; first compound 0.8 µM)	relative viability ([4]; first compound 2.53 µM)	relative viability ([4]; first compound 8 µM)
NCI-H522	0.594	0.619	0.639	0.578	0.72	1.31	0.592	0.659	0.624	0.58	0.716	0.796	0.752	0.895	0.78	–	–	–	–
HCC-15	0.675	0.649	0.591	0.446	0.433	0.512	0.46	0.432	0.348	0.32	0.394	0.353	0.408	0.363	0.305	0.477	0.445	0.455	0.491
A-427	0.562	0.594	0.629	0.506	0.55	0.322	0.393	0.376	0.301	0.323	0.789	0.748	0.818	0.719	0.701	0.86	–	0.771	0.631
NCI-H3122	0.497	0.524	0.447	0.411	0.418	0.415	0.385	0.362	0.368	0.292	0.201	0.258	0.193	0.25	0.183	0.564	0.612	0.691	0.46
NCI-H1915	0.226	0.283	0.26	0.261	0.214	0.374	0.366	0.365	0.35	0.358	0.295	0.313	0.292	0.3	0.283	0.372	0.281	0.348	0.277
NCI-H1355	0.347	0.357	0.315	0.332	0.305	0.43	0.445	0.457	0.38	0.377	0.344	0.388	0.44	0.386	0.406	–	–	0.947	0.763
NCI-H2023	0.23	0.202	0.223	0.167	0.183	0.397	0.38	0.382	0.351	0.359	0.607	0.496	0.465	0.45	0.502	0.486	0.557	0.565	0.442
NCI-H1755	0.861	0.699	0.712	0.716	0.674	0.599	0.574	0.571	0.602	0.406	0.782	0.837	0.813	0.869	0.744	0.615	0.682	0.676	0.655
HCC-366	0.332	0.369	0.397	0.311	0.359	0.573	0.623	0.638	0.532	0.6	0.36	0.358	0.322	0.311	0.374	0.445	0.387	0.423	0.364
SK-MES-1	0.356	0.372	0.325	0.273	0.346	0.696	0.686	0.663	0.568	0.54	0.556	0.536	0.625	0.776	0.782	0.995	1.04	1.03	0.929
NCI-H596	1.3	1.13	1.03	0.879	0.838	0.734	0.762	0.761	0.72	0.599	0.842	0.848	0.861	0.901	0.803	–	0.756	0.894	0.723
RERF-LC-KJ	0.657	0.622	0.615	0.495	0.457	0.406	0.395	0.461	0.364	0.312	0.878	0.784	0.81	0.782	0.686	0.781	–	0.671	0.765
LOU-NH91	0.82	0.797	0.806	0.726	0.74	0.823	0.742	0.691	0.677	0.481	0.787	0.803	0.824	0.766	0.777	–	0.577	0.697	0.705
NCI-H1623	–	–	–	–	–	0.558	0.609	0.622	0.519	0.618	–	–	–	–	–	–	–	–	–
Calu-6	–	–	–	–	–	–	–	–	–	–	–	–	–	–	–	0.667	0.673	0.651	0.612
LC-2-ad	0.777	0.776	0.83	0.746	0.811	0.692	0.555	0.56	0.438	0.508	0.971	0.893	0.885	0.917	0.967	0.318	0.242	0.307	0.218
